This note sets out measurements from patent publication US10695348B2, “Sulfonyl pyridyl TRP inhibitors” (Genentech, Inc., priority 2017, dated 2020).

Data set [1] is described as follows: Human liver microsome clearance / stability. The class given is in vitro ADME. To be noted: for HLM (human liver microsome stability): human liver microsomes, Table 5; for HLM clearance, in words: as compared to compounds 1 and 2. The text has this:
Human liver microsome clearance (mL/min/kg) may be measured according to the method described by Ackley et al, “Metabolic Stability Assessed by Liver Microsomes and Hepatocytes”, in “Optimization in Drug Discovery” in the “Methods in Pharmacology and Toxicology” series (ISSN 1557-2153), pp. 151-162 (Yan, Ed., Print ISBN 978-1-58829-332-9, Springer (2004), as well as by using commercially available assay kits by Cerep, Cyprotex, Bd Bioscience and others.
Human liver microsome HLM stability may be measured as using the procedure of Ackley et al. as described above.
A general note: Liver microsomes are vesicles of endoplasmic reticulum, rich in cytochrome P450 enzymes.

Data set [2] deals with T1, human TRPA1 (Homo sapiens, UniProt O75762).
T1 construct: expressed in transfected cells; host or cells: CHO cells
The data set can be described thus: Human Ca2+ MAX IC50 calcium assay. To be noted: for IC50: Table 5, read-out: H Ca2+ MAX (human CA2+ MAX IC50); for affinity on human TRPA1, in words: as compared to compounds 1 and 2. The class given is cell-based. The text has this:
Human Ca2+ MAX IC50 may be measured using one of the commercially available calcium assay kits provided by Molecular Devices, Abcam, Bio-Rad, Biovision, Enzo Lifesciences, Abnova, Sigma-Aldrich, or others.

For data set [3], the target named is T1, human TRPA1. The data set can be described thus: FLIPR Tetra calcium influx assay, CHO cells expressing TRPA1, cinnamaldehyde agonist (hTRPA1 CHO Ca2+ AUC EVO). The class given is cell-based. To be noted: CHO cells expressing human TRPA1; 75 uM cinnamaldehyde; Hill coefficient fixed to 1.5; read-out: hTRPA1 IC50 (hTRPA1 CHO Ca2+ AUC EVO (IC50)). As to the method:
The IC50 ([…]) of compounds on the human and rat TRPA1 channels were determined using a FLIPR Tetra instrument. CHO cells expressing TRPA1 were plated into 384-well plates, incubated overnight at 37° C., and loaded with BD calcium indicator dye for 1 hr at 37° C. followed by 15 minutes at room temperature. The assay buffer was Hank's Balanced Salt Solution (HBSS) containing 20 mM HEPES (pH readjusted to 7.4) along with 0.02% BSA.
Following dye load and plate cool down, compounds were added to the cells using FLIPR Tetra. Plates were then incubated with compounds for 20 minutes at room temperature prior to adding agonist. Following this incubation, about an EC80 concentration of cinnamaldehyde (75 uM for human TRPA1 and 45 uM for rat TRPA1) was added to active the channels and block of cinnamaldehyde induced calcium influx was measured.
The IC50 results were fit with a standard Hill function, keeping the Hill coefficient (n) fixed to 1.5. Fixing the Hill coefficient will generally reduce variability of the IC50 determination. The IC50 results were individually examined to make sure the MIN and MAX points were set correctly prior to validation of the results.

T1 sequence (O75762 whole entry): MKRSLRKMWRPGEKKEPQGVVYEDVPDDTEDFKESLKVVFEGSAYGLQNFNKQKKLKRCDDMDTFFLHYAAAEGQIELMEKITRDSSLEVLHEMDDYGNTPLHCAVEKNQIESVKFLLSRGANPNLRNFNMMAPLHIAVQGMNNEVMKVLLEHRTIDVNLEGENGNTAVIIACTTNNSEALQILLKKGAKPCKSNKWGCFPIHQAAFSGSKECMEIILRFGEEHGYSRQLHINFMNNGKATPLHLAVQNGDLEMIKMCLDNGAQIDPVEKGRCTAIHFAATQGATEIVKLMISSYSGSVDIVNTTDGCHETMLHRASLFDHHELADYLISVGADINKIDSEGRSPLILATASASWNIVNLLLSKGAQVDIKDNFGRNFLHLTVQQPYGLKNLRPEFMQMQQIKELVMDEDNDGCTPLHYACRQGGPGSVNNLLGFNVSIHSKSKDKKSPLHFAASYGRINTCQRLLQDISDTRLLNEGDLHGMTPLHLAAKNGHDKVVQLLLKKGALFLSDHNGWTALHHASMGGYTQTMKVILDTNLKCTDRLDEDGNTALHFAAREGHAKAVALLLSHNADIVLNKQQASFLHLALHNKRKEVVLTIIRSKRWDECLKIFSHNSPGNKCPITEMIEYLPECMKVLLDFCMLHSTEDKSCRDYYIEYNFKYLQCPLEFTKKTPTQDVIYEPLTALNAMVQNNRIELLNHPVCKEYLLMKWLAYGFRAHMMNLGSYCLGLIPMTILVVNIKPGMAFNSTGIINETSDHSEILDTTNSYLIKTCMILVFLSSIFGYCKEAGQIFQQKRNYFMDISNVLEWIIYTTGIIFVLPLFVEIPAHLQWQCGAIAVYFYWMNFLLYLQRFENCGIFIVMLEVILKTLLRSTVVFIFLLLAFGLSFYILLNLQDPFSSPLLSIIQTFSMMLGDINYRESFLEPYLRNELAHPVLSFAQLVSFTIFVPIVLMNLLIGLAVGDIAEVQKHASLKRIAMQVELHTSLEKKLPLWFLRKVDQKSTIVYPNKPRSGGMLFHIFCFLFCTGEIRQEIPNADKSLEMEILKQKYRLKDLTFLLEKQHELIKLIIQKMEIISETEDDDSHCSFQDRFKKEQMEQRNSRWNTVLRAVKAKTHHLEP

In general, IC50 refers to the concentration needed to halve the response being measured. For `C[C@H]1[C@H](F)C[C@@H](C(=O)NCc2cc(-c3cnc(C(F)(F)F)nc3)ncc2C(F)(F)F)N1S(=O)(=O)c1ccc(F)cn1` (single isomer, unassigned) [Compound 1], the “HLM (human liver microsome stability)” value in data set [1] is on record as 4.1 mL/min/kg. In addition, the concentration for half-maximal inhibition (IC50) at human TRPA1 [2] is 8 nM.
For `C[C@H]1[C@H](F)C[C@@H](C(=O)NCc2cc(-c3cnc(C(F)(F)F)nc3)ncc2C(F)(F)F)N1S(=O)(=O)c1ccc(Cl)cn1` [Compound 2] the same measures were 6.1 mL/min/kg and 6 nM.
Consider `C[C@H]1[C@H](F)C[C@@H](C(=O)NCc2cc(-c3cnc(C(F)(F)F)nc3)ncc2C(F)(F)F)N1S(=O)(=O)c1cncc(F)c1` [Compound 3], for which, in data set [1], the “HLM clearance, in words” value is listed as “relatively high HLM clearance” and the “HLM (human liver microsome stability)” value is 19 mL/min/kg. For the same compound, the half-inhibitory concentration (IC50) at human TRPA1 [2] came to 21 nM.
For `C[C@H]1[C@H](F)C[C@@H](C(=O)NCc2cc(-c3cnc(C(F)(F)F)nc3)ncc2C(F)(F)F)N1S(=O)(=O)c1ccc(C#N)nc1` [Compound 4], the “HLM (human liver microsome stability)” value in data set [1] worked out at 3.7 mL/min/kg. Also, at human TRPA1 [2], the IC50 came out at 41 nM and the “affinity on human TRPA1, in words” value is recorded as “low affinity”.
Turning to `C[C@H]1[C@H](F)C[C@@H](C(=O)NCc2cc(-c3cnc(C(F)(F)F)nc3)ncc2C(F)(F)F)N1S(=O)(=O)c1ccncc1` [Compound 6], in data set [1], the “HLM clearance, in words” value was “relatively high HLM clearance” and the “HLM (human liver microsome stability)” value was 19 mL/min/kg. For the same compound, at human TRPA1 [2], the 50% inhibitory concentration (IC50) stood at 638 nM and the “affinity on human TRPA1, in words” value was “low affinity”.
For `C[C@H]1[C@H](F)C[C@@H](C(=O)NCc2cc(-c3cnc(C(F)(F)F)nc3)ncc2C(F)(F)F)N1S(=O)(=O)c1ccc(F)cn1` [[1], (2S,4R,5S)-4-fluoro-1-[(5-fluoro-2-pyridyl)sulfonyl]-5-methyl-N-[[5-(trifluoromethyl)-2-[2-(trifluoromethyl)pyrimidin-5-yl]-4-pyridyl]methyl]pyrrolidine-2-carboxamide], the half-maximal inhibitory concentration (IC50) at human TRPA1 [3] was determined as 2.69 nM.
Same read-out and setting: for `C[C@H]1[C@H](F)C[C@@H](C(=O)NCc2cc(-c3cnc(C(F)(F)F)nc3)ncc2C(F)(F)F)N1S(=O)(=O)c1cccnc1` [[2], (2S,4R,5S)-4-fluoro-5-methyl-1-(3-pyridylsulfonyl)-N-[[5-(trifluoromethyl)-2-[2-(trifluoromethyl)pyrimidin-5-yl]-4-pyridyl]methyl]pyrrolidine-2-carboxamide] the value was 32 nM; for `C[C@H]1[C@H](F)C[C@@H](C(=O)NCc2cc(-c3cnc(C(F)(F)F)nc3)ncc2C(F)(F)F)N1S(=O)(=O)c1cncc(Cl)c1` [[3], (2S,4R,5S)-1-[(5-chloro-3-pyridyl)sulfonyl]-4-fluoro-5-methyl-N-[[5-(trifluoromethyl)-2-[2-(trifluoromethyl)pyrimidin-5-yl]-4-pyridyl]methyl]pyrrolidine-2-carboxamide], 3.09 nM; for `C[C@H]1[C@H](F)C[C@@H](C(=O)NCc2cc(-c3cnc(C(F)(F)F)nc3)ncc2C(F)(F)F)N1S(=O)(=O)c1cc2c(Cl)nccc2o1` [[4], (2S,4R,5S)-1-(4-chlorofuro[3,2-c]pyridin-2-yl)sulfonyl-4-fluoro-5-methyl-N-[[5-(trifluoromethyl)-2-[2-(trifluoromethyl)pyrimidin-5-yl]-4-pyridyl]methyl]pyrrolidine-2-carboxamide], 0.634 nM.
Same read-out and setting: the result for `C[C@H]1[C@H](F)C[C@@H](C(=O)NCc2cc(-c3cnc(C(F)(F)F)nc3)ncc2C(F)(F)F)N1S(=O)(=O)c1cc2cnccc2o1` [[5], (2S,4R,5S)-4-fluoro-1-furo[3,2-c]pyridin-2-ylsulfonyl-5-methyl-N-[[5-(trifluoromethyl)-2-[2-(trifluoromethyl)pyrimidin-5-yl]-4-pyridyl]methyl]pyrrolidine-2-carboxamide] reads 1.91 nM.
On the same count and under the same terms, for `C[C@H]1[C@H](F)C[C@@H](C(=O)NCc2cc(-c3cnc(C(F)(F)F)nc3)ncc2C(F)(F)F)N1S(=O)(=O)c1ccc(Cl)cn1` [[6], (2S,4R,5S)-1-[(5-chloro-2-pyridyl)sulfonyl]-4-fluoro-5-methyl-N-[[5-(trifluoromethyl)-2-[2-(trifluoromethyl)pyrimidin-5-yl]-4-pyridyl]methyl]pyrrolidine-2-carboxamide] the value was 2.16 nM; for `C[C@H]1[C@H](F)C[C@@H](C(=O)NCc2cc(-c3cnc(C(F)(F)F)nc3)ncc2C(F)(F)F)N1S(=O)(=O)c1ncccc1F` [[7], (2S,4R,5S)-4-fluoro-1-[(3-fluoro-2-pyridyl)sulfonyl]-5-methyl-N-[[5-(trifluoromethyl)-2-[2-(trifluoromethyl)pyrimidin-5-yl]-4-pyridyl]methyl]pyrrolidine-2-carboxamide], 633 nM; for `C[C@H]1[C@H](F)C[C@@H](C(=O)NCc2cc(-c3cnc(C(F)(F)F)nc3)ncc2C(F)(F)F)N1S(=O)(=O)c1ccc(C#N)cn1` [[8], (2S,4R,5S)-1-(5-cyanopyridin-2-ylsulfonyl)-4-fluoro-5-methyl-N-((5-(trifluoromethyl)-2-(2-(trifluoromethyl)pyrimidin-5-yl)pyridin-4-yl)methyl)pyrrolidine-2-carboxamide], 73.5 nM.
For `C[C@H]1[C@H](F)C[C@@H](C(=O)NCc2cc(-c3cnc(C(F)(F)F)nc3)ncc2Cl)N1S(=O)(=O)c1ccc(F)cn1` [[9], (2S,4R,5S)—N-((5-chloro-2-(2-(trifluoromethyl)pyrimidin-5-yl)pyridin-4-yl)methyl)-4-fluoro-1-(5-fluoropyridin-2-ylsulfonyl)-5-methylpyrrolidine-2-carboxamide], the IC50 at human TRPA1 [3] was determined as 16.7 nM.
Still for that read-out and setting: the result for `C[C@H]1[C@H](F)C[C@@H](C(=O)NCc2cc(-c3cnc(C(F)(F)F)nc3)ccc2C#N)N1S(=O)(=O)c1ccc(F)cn1` [[10], (2S,4R,5S)—N-(2-cyano-5-(2-(trifluoromethyl)pyrimidin-5-yl)benzyl)-4-fluoro-1-(5-fluoropyridin-2-ylsulfonyl)-5-methylpyrrolidine-2-carboxamide] reads 66.9 nM; that for `C[C@H]1[C@H](F)C[C@@H](C(=O)NCc2cc(-c3cnc(C(F)(F)F)nc3)ncc2OC(F)(F)F)N1S(=O)(=O)c1ccc(F)cn1` [[11], (2S,4R,5S)-4-fluoro-1-(5-fluoropyridin-2-ylsulfonyl)-5-methyl-N-((5-(trifluoromethoxy)-2-(2-(trifluoromethyl)pyrimidin-5-yl)pyridin-4-yl)methyl)pyrrolidine-2-carboxamide], 6.73 nM.
Same read-out and setting: for `C[C@H]1[C@H](F)C[C@@H](C(=O)NCc2cc(-c3cnc(C(F)(F)F)nc3)ncc2F)N1S(=O)(=O)c1ccc(F)cn1` [[12], (2S,4R,5S)-4-fluoro-N-((5-fluoro-2-(2-(trifluoromethyl)pyrimidin-5-yl)pyridin-4-yl)methyl)-1-(5-fluoropyridin-2-ylsulfonyl)-5-methylpyrrolidine-2-carboxamide] the value was 103 nM.
The same measure, in the same setting: for `C[C@H]1[C@H](F)C[C@@H](C(=O)NCc2cc(-c3cnc(C(F)(F)F)nc3)ncc2C#N)N1S(=O)(=O)c1ccc(F)cn1` [[13], (2S,4R,5S)—N-((5-cyano-2-(2-(trifluoromethyl)pyrimidin-5-yl)pyridin-4-yl)methyl)-4-fluoro-1-(5-fluoropyridin-2-ylsulfonyl)-5-methylpyrrolidine-2-carboxamide] the value was 89.8 nM; for `C[C@H]1[C@H](F)C[C@@H](C(=O)NCc2cc(-c3cnc(C(F)(F)F)nc3)cnc2C(F)F)N1S(=O)(=O)c1ccc(F)cn1` [[14], (2S,4R,5S)—N-((2-(difluoromethyl)-5-(2-(trifluoromethyl)pyrimidin-5-yl)pyridin-3-yl)methyl)-4-fluoro-1-(5-fluoropyridin-2-ylsulfonyl)-5-methylpyrrolidine-2-carboxamide], 75.1 nM; for `C[C@H]1[C@H](F)C[C@@H](C(=O)NCc2cc(-c3cnc(C(F)(F)F)nc3)cnc2C(F)(F)F)N1S(=O)(=O)c1ccc(F)cn1` [[15], (2S,4R,5S)-4-fluoro-1-(5-fluoropyridin-2-ylsulfonyl)-5-methyl-N-((2-(trifluoromethyl)-5-(2-(trifluoromethyl)pyrimidin-5-yl)pyridin-3-yl)methyl)pyrrolidine-2-carboxamide], 47.7 nM.
